Experiments:
[1] = Hemolytic activity in human RBC assessed as haemoglobin release measured after 3 hr; format: toxicity, cell-based, Erythrocyte; conditions: red blood cells (erythrocytes)
[2] = Cytotoxicity against human HepG2 cells assessed as reduction in cell viability; format: toxicity, cell-based
[3] = tested on: Pseudomonas aeruginosa; assay: Antibacterial activity against Pseudomonas aeruginosa ATCC 27853 = CCM 3955 assessed as inhibition of bacterial growth incubated for 24 hrs by microdilution assay; format: functional
[4] = tested on: Pseudomonas aeruginosa; assay: Antibacterial activity against multidrug-resistant Pseudomonas aeruginosa assessed as reduction in microbial growth incubated for 24 hrs by microdilution assay; format: functional
[5] = tested on: Enterococcus faecium; assay: Antibacterial activity against vancomycin resistant Enterococcus faecium 419/ANA assessed as reduction in microbial growth incubated for 24 hrs by microdilution assay; format: functional
[6] = tested on: Staphylococcus aureus; assay: Antibacterial activity against Staphylococcus aureus ATCC 29213 = CCM 4223 assessed as inhibition of bacterial growth incubated for 24 hrs in presence of BSA by microdilution assay; format: functional
[7] = tested on: Staphylococcus aureus; assay: Antibacterial activity against Staphylococcus aureus ATCC 29213 = CCM 4223 assessed as inhibition of bacterial growth incubated for 24 hrs by microdilution assay; format: functional
[8] = tested on: Staphylococcus aureus; assay: Antibacterial activity against methicillin resistant Staphylococcus aureus 4591/A assessed as reduction in microbial growth incubated for 24 hrs by microdilution assay; format: functional
[9] = tested on: Enterococcus faecalis; assay: Antibacterial activity against Enterococcus faecalis ATCC 29212 = CCM 4224 assessed as inhibition of bacterial growth incubated for 24 hrs by microdilution assay; format: functional
[10] = tested on: Escherichia coli; assay: Antibacterial activity against Escherichia coli ATCC 25922 = CCM 3954 assessed as inhibition of bacterial growth incubated for 24 hrs in presence of BSA by microdilution assay; format: functional
[11] = tested on: Escherichia coli; assay: Antibacterial activity against multidrug-resistant Escherichia coli CE5556 expressing CTX-M-15 assessed as reduction in microbial growth incubated for 24 hrs by microdilution assay; format: functional
[12] = tested on: Escherichia coli; assay: Antibacterial activity against Escherichia coli ATCC 25922 = CCM 3954 assessed as inhibition of bacterial growth incubated for 24 hrs by microdilution assay; format: functional
[13] = tested on: Staphylococcus epidermidis; assay: Antibacterial activity against Staphylococcus epidermidis CCM 7221 assessed as inhibition of bacterial growth incubated for 24 hrs by microdilution assay; format: functional
[14] = Gradient chromatographic hydrophobicity index of the compound at pH 3.7 by HPLC analysis; format: ADME

SMILES	HC50 at 3 h [1] [µg/mL]	CC50 [2] [µM]	MIC [3] [µg/mL]	MIC [4] [µg/mL]	MIC [5] [µg/mL]	MIC [6] [µg/mL]	MIC [7] [µg/mL]	MIC [8] [µg/mL]	MIC [9] [µg/mL]	MIC [10] [µg/mL]	MIC [11] [µg/mL]	MIC [12] [µg/mL]	MIC [13] [µg/mL]	CHI [14]
Cl.Cl.Cl.Cl.Cl.Cl.NCCCN(CCCN)CCP(=O)(OCCCOP(=O)(CCN(CCCN)CCCN)OCC12CC3CC(CC(C3)C1)C2)OCC12CC3CC(CC(C3)C1)C2 (stereo unspecified)	> 500	> 99	64	16	64	4	4	4	8	8	16	8	2	32.6
CCCCCCOP(=O)(CCN(CCCN)CCCN)OCCCCCCCCCCOP(=O)(CCN(CCCN)CCCN)OCCCCCC.Cl.Cl.Cl.Cl.Cl.Cl (stereo unspecified)	743	17.5	4	8	32	3	0.5	1	4	1	8	0.5	0.5	34.8
CCC/C=C\CCOP(=O)(CCN(CCCN)CCCN)OCCCCCCOP(=O)(CCN(CCCN)CCCN)OCC/C=C\CCC.Cl.Cl.Cl.Cl.Cl.Cl (stereo unspecified)	> 200	> 99	128	128	> 128	16	4	4	> 128	32	32	16	1	29.6
CCCCCCOP(=O)(CCN(CCCN)CCCN)OCCCCCCCCOP(=O)(CCN(CCCN)CCCN)OCCCCCC.Cl.Cl.Cl.Cl.Cl.Cl (stereo unspecified)	> 500	> 99	16	64	> 128	2	1	2	16	8	8	1	0.5	31.4
CCCCOP(=O)(CCN(CCN)CCN)OCCCCCCCCCCOP(=O)(CCN(CCN)CCN)OCCCC.Cl.Cl.Cl.Cl.Cl.Cl (stereo unspecified)	55	> 99	64	128	128	> 128	64	128	64	> 128	> 128	64	64	34.2
CC(C)COP(=O)(CCN(CCCN)CCCN)OCCCCCCCCCCCCOP(=O)(CCN(CCCN)CCCN)OCC(C)C.Cl.Cl.Cl.Cl.Cl.Cl (stereo unspecified)	170	56.2	32	16	128	16	4	4	32	> 128	> 128	128	1	31.4
CCCC/C=C\CCOP(=O)(CCN(CCCN)CCCN)OCCCCCCOP(=O)(CCN(CCCN)CCCN)OCC/C=C\CCCC.Cl.Cl.Cl.Cl.Cl.Cl (stereo unspecified)	34.8	92.5	16	16	64	4	1	1	16	4	2	2	0.5	33.8
CCCCCCCOP(=O)(CCN(CCCN)CCCN)OCCCCCCCOP(=O)(CCN(CCCN)CCCN)OCCCCCCC.Cl.Cl.Cl.Cl.Cl.Cl (stereo unspecified)	287	89.5	16	8	64	1	1	1	4	1	2	8	0.5	33.9
CCC/C=C\CCOP(=O)(CCN(CCCN)CCCN)OCCCOP(=O)(CCN(CCCN)CCCN)OCC/C=C\CCC.Cl.Cl.Cl.Cl.Cl.Cl (stereo unspecified)	> 200	> 99	128	128	> 128	64	64	32	> 128	> 128	> 128	> 128	8	23.4
CC/C=C\CCCOP(=O)(CCN(CCCN)CCCN)OCCCCCOP(=O)(CCN(CCCN)CCCN)OCCC/C=C\CC.Cl.Cl.Cl.Cl.Cl.Cl (stereo unspecified)	> 200		> 128	> 128	> 128	64	16	32	> 128	> 128	> 128	128	8	27.7
CCCCCCOP(=O)(CCN(CCCN)CCCN)OCCCCCCOP(=O)(CCN(CCCN)CCCN)OCCCCCC.Cl.Cl.Cl.Cl.Cl.Cl (stereo unspecified)	634		> 128	> 128	> 128	16	8	16	> 128	64	128	32	4	28.7
CCCCOP(=O)(CCN(CCCN)CCCN)OCCCCCCCCCCCCOP(=O)(CCN(CCCN)CCCN)OCCCC.Cl.Cl.Cl.Cl.Cl.Cl (stereo unspecified)	> 500		32	16	> 128	16	4	4	32	128	> 128	128	1	31.4
CCCCCOP(=O)(CCN(CCCN)CCCN)OCCCCCCCCCCOP(=O)(CCN(CCCN)CCCN)OCCCCC.Cl.Cl.Cl.Cl.Cl.Cl (stereo unspecified)	159		16	8	128	8	2	2	32	> 128	128	2	1	31.3
CC(C)COP(=O)(CCN(CCCN)CCCN)OCCCCCCCCOP(=O)(CCN(CCCN)CCCN)OCC(C)C.Cl.Cl.Cl.Cl.Cl.Cl (stereo unspecified)	> 1000		> 128	> 128	> 128	> 128	> 128	> 128	> 128	> 128	> 128	> 128	32	25.2
Cl.Cl.Cl.Cl.Cl.Cl.NCCCN(CCCN)CCP(=O)(OCCCCCCOP(=O)(CCN(CCCN)CCCN)OCC1CCCC1)OCC1CCCC1 (stereo unspecified)	> 1000		> 128	> 128	> 128	> 128	128	128	> 128	> 128	> 128	> 128	64	14.8
CCCC/C=C\CCOP(=O)(CCN(CCN)CCN)OCCCCCCOP(=O)(CCN(CCN)CCN)OCC/C=C\CCCC.Cl.Cl.Cl.Cl.Cl.Cl (stereo unspecified)	254		16	8	32	2	1	1	4	2	2	1	0.5	40.1
CC(C)COP(=O)(CCN(CCCN)CCCN)OCCCCCCCCCCOP(=O)(CCN(CCCN)CCCN)OCC(C)C.Cl.Cl.Cl.Cl.Cl.Cl (stereo unspecified)	> 500		128	64	128	16	32	16	64	> 128	128	> 128	8	35
Cl.Cl.Cl.Cl.Cl.Cl.NCCCN(CCCN)CCP(=O)(OCCCCCCOP(=O)(CCN(CCCN)CCCN)OCCCC1CCCCC1)OCCCC1CCCCC1 (stereo unspecified)	183		4	4	16	1	1	1	2	0.5	1	1	0.5	36.4
Cl.Cl.Cl.Cl.Cl.Cl.NCCCN(CCCN)CCP(=O)(OCCCCCCOP(=O)(CCN(CCCN)CCCN)OCCc1ccccc1)OCCc1ccccc1 (stereo unspecified)	> 200		> 128	> 128	> 128	> 128	64	64	> 128	> 128	> 128	> 128	64	11.9
